The assay concerns rat model of fibromyalgia pain (reserpine-induced mechanical allodynia). Kind of assay: Mechanical allodynia (von Frey 50% response threshold) in reserpine-induced rat model of fibromyalgia pain. Format: in vivo. The text has this:
The purpose of the study is to assess the efficacy of the described compounds in the rat model of fibromyalgia pain.
Animals were assigned to treatment groups based on Day 0 pre-dose von Frey 50% response thresholds so that group means of the mean paw withdrawal latencies were approximately equal. Animals were ranked by pre- and post-reserpine baseline change from lowest to highest, and treatments were assigned randomly within stratified sub-groups according to the total number of treatment groups in the study.
The animals were dosed in sequence based on animal number, so that the distribution of treatment across a given set of animals was not predictable.
Mechanical fibromyalgia-associated allodynia is measured using […] (Stoelting©; Wood Dale, Ill., USA) with varying stiffness (0.04, 0.07, 0.16, 0.4, 1.0, 4.0, and 8.0 g) according to the up-down method 1. Animals were placed in individual acrylic chambers on a metal mesh surface and allowed to acclimate to their surroundings for a minimum of 15 minutes before testing. Each filament was presented perpendicular to the plantar surface with sufficient force to cause slight buckling against the paw and held for approximately 4 seconds or until a positive response is noted (paw sharply withdrawn). Testing was initiated with the 0.4 g filament. In the absence of a paw withdrawal response, the next stronger stimulus was presented. In the event of paw withdrawal, the next weaker stimulus was used. This process was repeated until 4 responses after the initial change in response (no response to positive response or positive response to no response) were obtained. […] The 50% response threshold is calculated using the formula:
50% response threshold (g)=(10(Xf+kδ))/10,000
• Pre-Injury mechanical fibromyalgia-associated allodynia testing (vF) • Reserpine injection
• Mechanical fibromyalgia-associated allodynia testing (vF; time baseline) • Dosing (time 0 min) • Mechanical fibromyalgia-associated allodynia testing (vF; time ˜1 hour) • Mechanical fibromyalgia-associated allodynia testing (vF; time ˜2 hour) • Mechanical fibromyalgia-associated allodynia testing (vF; time ˜4 hour) • Euthanasia
Pain was induced by three daily doses of 1 mg/kg reserpine, and mechanical fibromyalgia-associated allodynia was assessed using von Frey filaments. Mechanical fibromyalgia-associated allodynia was measured prior to and the first reserpine injection and 4 days following the third injection. GABAA receptor modulators (0.3 or 3 mg/kg), pregabalin (30 mg/kg) or vehicle (0.5% methylcellulose) were administered 4 days after the last reserpine injection, with mechanical fibromyalgia-associated allodynia being assessed prior to, and at 1, 2, and 4 hours post-administration to determine the efficacy of GABAA receptor modulators in this model.

Entries after “also recorded” stand apart in the source; their conditions may differ.

As to `CC(C)(O)c1cnn2c(-c3ccc(F)c(-c4c(F)cccc4C#N)c3)cnc2n1` [Compound 1], the “Mean Paw Response Thresholds” value (0.3 mg/kg PO group, Day 0, Baseline (post-reserpine, before dosing)) is listed as 3.68 g; the “Mean Paw Response Thresholds” value (0.3 mg/kg PO group, Pre-reserpine (before dosing)) is 14.50 g; the “Mean Paw Response Thresholds” value (0.3 mg/kg PO, Day 0, 1 hr post-dosing) amounted to 6.52 g; the “Mean Paw Response Thresholds” value (0.3 mg/kg PO, Day 0, 2 hr post-dosing) stood at 8.36 g; the “Mean Paw Response Thresholds” value (0.3 mg/kg PO, Day 0, 4 hr post-dosing) amounted to 7.96 g; the “Mean Paw Response Thresholds” value (3 mg/kg PO group, Day 0, Baseline (post-reserpine, before dosing)) is given as 3.82 g. Besides, the “Mean Paw Response Thresholds” value runs as follows: (3 mg/kg PO group, Pre-reserpine (before dosing)) 14.01 g; (3 mg/kg PO, Day 0, 1 hr post-dosing) 6.08 g; (3 mg/kg PO, Day 0, 2 hr post-dosing) 7.98 g; (3 mg/kg PO, Day 0, 4 hr post-dosing) 7.54 g.

As to `CC(C)C[C@H](CN)CC(=O)O` [pregabalin, reference compound], the “Mean Paw Response Thresholds” value is listed as 3.84 g (30 mg/kg PO group, Day 0, Baseline (post-reserpine, before dosing)); 14.55 g (30 mg/kg PO group, Pre-reserpine (before dosing)); 9.34 g (30 mg/kg PO, Day 0, 1 hr post-dosing); 10.17 g (30 mg/kg PO, Day 0, 2 hr post-dosing); 10.23 g (30 mg/kg PO, Day 0, 4 hr post-dosing). For the setting “30 mg/kg PO, 1, 2 and 4 hour time points”, the “Reversal of reserpine-induced mechanical fibromyalgia-associated allodynia (response thresholds)” value is “significantly increased median response thresholds at all of the time points following dosing; also recorded: significantly reversed mechanical fibromyalgia-associated allodynia”.

The values above are taken from patent publication US20220152037A1, “USE OF GABAA RECEPTOR MODULATORS FOR TREATMENT OF PAIN” (NEUROCYCLE THERAPEUTIC, INC., priority 2019, published 2022).
